The subject of one test is NCI-H520. The test is described as follows: In vitro anti-tumor activity evaluation test (CCK-8), NCI-H520. It is filed as cell-based, human. The following applies: Homo sapiens, NCI-H520, 72 h; for inhibition at 1 µM: read-out: Inhibitory rates against tumor cell lines; for IC50: read-out: IC50 against different tumor cell lines. How it is done: (§1) • (1) Cells were digested and counted. Cell suspensions (H520, SW620 5.0×10^4 cells/mL, and U87MG 3.5×10^4 cells/mL) were prepared. 100 μL of cell suspension was added to each well of a 96-well cell culture plate. • (2) The 96-well cell culture plate was incubated in a 37° C., 5%, CO2 incubator for 24 h. • (3) A drug was diluted with a culture medium to a desired working solution concentration. 100 μL of the corresponding drug-containing culture medium was added to each well. At the same time, a negative control group and a positive control group were set up. • (4) The 96-well cell culture plate was incubated in a 37° C., 5%, CO2 incubator for 72 h. • (5) The 96-well plate was stained with CCK-8, and at λ=450 nm, the OD value was determined. • 1) 10 μL of CCK-8 was added to each well. The culture plate continued to be incubated in the incubator for 2-3 h. • 2) The culture plate was rocked for 10 min to gently mix and remove air bubbles from the 96-well plate. • 3) At λ=450 nm, the OD value of each well was read by the enzyme marker, and the inhibitory rates were calculated. • (6) According to the following equation (1), the growth inhibitory rate of the tumor cells was obtained. The obtained results were substituted into an IC 50 calculation software SPSS17.0 to find out the IC50 value.

A short description of test [1]: In vitro NO release test (incubation with L-cysteine, OD at 550 nm). The following applies: 100 μM solution with cysteine solution, 37° C. How it is done:
• (1) Sodium nitrite solutions with different concentrations were prepared. A calibration curve was drawn. • (2) The sample was treated. A 100 μM solution was prepared. 2.5 mL of the prepared compound solution and 2.5 mL of the cysteine solution were taken and incubated at 37° C. for 120 min, and the resulting mixture was sampled at different time points. • (3) A blank hole and a standard hole were set. 160 μL of the sample was collected and mixed evenly with 0.08 mL of a developer and stood at 37° C. for 15 min. At λ=550 nm, the OD value of absorbance was measured by the enzyme marker. The NO release levels were obtained by substituting the value into the standard curve.

For a further test, the system named is U87MG. Description: In vitro anti-tumor activity evaluation test (CCK-8), U87MG. The test is classed as cell-based, human. The note with it: Homo sapiens, U-87 MG, U87MG, 72 h; for inhibition at 1 µM: read-out: Inhibitory rates against tumor cell lines; for IC50: read-out: IC50 against different tumor cell lines. How it is done: as §1
Another test concerns SW620. The test is described as follows: In vitro anti-tumor activity evaluation test (CCK-8), SW620. It is filed as cell-based, human. The following applies: Homo sapiens, SW-620, SW620, 72 h; for inhibition at 1 µM: read-out: Inhibitory rates against tumor cell lines. How it is done: as §1

With `C=C[C@]1(C)CC[C@@H](C(=C)CN2CCCC(COC(=O)CCCC(=O)OCC#CCOc3no[n+]([O-])c3S(=O)(=O)c3ccccc3)C2)C[C@H]1C(=C)CCl` (stereo partly drawn) [Example 20, 4-((4-((5-((1-(2-((1R,3R,4S)-3-(3-chloroprop-1-en-2-yl)-4-methyl-4-vinylcyclohexyl)allyl)piperidin-3-yl)methoxyl)-5-oxopentanoyl)oxy)but-2-yn-1-yl)oxy)-3-(phenylsulfonyl)-1,2,5-oxadiazole 2-oxide], the inhibition at 1 µM with NCI-H520 came out at 44.5 ± 2.4%; with U87MG, 53.9 ± 0.6%; in the test with SW620, 43.2 ± 1.8%. Further, the IC50 (commonly the point on the concentration scale where inhibition reaches its midpoint) was determined as 1180 ± 66 nM in the test with NCI-H520 and 1110 ± 52 nM in the test with U87MG. The NO-release concentrations in test [1] (5 min) worked out at 15.19 µM; in test [1] (10 min), 17.57 µM; in test [1] (20 min) it was 21.33 µM; in test [1] (30 min), 25.52 µM; in test [1] (60 min) it was 39.29 µM; in test [1] (90 min), 58.12 µM. This compound gave an NO-release concentrations in test [1] (120 min) of 77.28 µM.
For the compound `C=C[C@]1(C)CC[C@@H](C(=C)CN(C)CCOC(=O)CCC(=O)OCCOc2no[n+]([O-])c2S(=O)(=O)c2ccccc2)C[C@H]1C(=C)CCl` [Example 1, 4-(2-((4-(2-((2-((1R,3R,4S)-3-(3-chloroprop-1-en-2-yl)-4-methyl-4-vinylcyclohexyl))(methyl)amino)ethyoxyl)-4-oxobutanoyl)oxy)ethyoxyl)-3-(phenylsulfonyl)-1,2,5-oxadiazole 2-oxide], the results for the inhibition at 1 µM in the test on NCI-H520, with U87MG and in the test with SW620 were 28.8 ± 0.8%, 39.5 ± 2.1% and 30.7 ± 3.5%, respectively. Also, the NO-release concentrations was 1.73 µM in test [1] (5 min); 2.31 µM in test [1] (10 min); 2.90 µM in test [1] (20 min); 4.04 µM in test [1] (30 min); 7.76 µM in test [1] (60 min); 12.67 µM in test [1] (90 min). The compound also gave an NO-release concentrations in test [1] (120 min) of 17.21 µM.
Regarding `C=C[C@]1(C)CC[C@@H](C(=C)CN2CCN(CCOC(=O)CCC(=O)OCCOc3no[n+]([O-])c3S(=O)(=O)c3ccccc3)CC2)C[C@H]1C(=C)CCl` [Example 21, 4-(2-((4-(2-(4-(2-((1R,3R,4S)-3-(3-chloroprop-1-en-2-yl)-4-methyl-4-vinylcyclohexyl)allyl)piperazin-1-yl)ethyoxyl)-4-oxobutanoyl)oxy)ethyoxyl)-3-(phenylsulfonyl)-1,2,5-oxadiazole 2-oxide], the inhibition at 1 µM is 47.3 ± 2.6% with NCI-H520, 52.6 ± 1% in the test on U87MG and 43.6 ± 2.5% with SW620. Moreover, the NO-release concentrations came to 0.08 µM in test [1] (5 min); 0.41 µM in test [1] (10 min); 0.99 µM in test [1] (20 min); 1.64 µM in test [1] (30 min); 2.98 µM in test [1] (60 min); 6.43 µM in test [1] (90 min). This compound also displayed an NO-release concentrations in test [1] (120 min) of 10.20 µM. Further, the 50% inhibitory concentration (IC50) in the test with U87MG was 926 ± 52 nM.
As to `C=C[C@]1(C)CC[C@@H](C(=C)CN(C)CCOC(=O)CCC(=O)OCC#CCOc2no[n+]([O-])c2S(=O)(=O)c2ccccc2)C[C@H]1C(=C)CCl` [Example 3, 4-((4-((4-(2-((2-((1R,3R,4S)-3-(3-chloroprop-1-en-2-yl)-4-methyl-4-vinylcyclohexyl)allyl)(methyl)amino)ethyoxyl)-4-oxobutanoyl)oxy)but-2-yn-1-yl)oxy)-3-(phenylsulfonyl)-1,2,5-oxadiazole 2-oxide], the inhibition at 1 µM was found to be 35 ± 2.2% in the test on NCI-H520, 34.9 ± 0.6% in the test with U87MG and 30.1 ± 5.2% in the test with SW620. Besides, the NO-release concentrations in test [1] (5 min) is 10.78 µM; in test [1] (10 min), 12.02 µM; in test [1] (20 min) it was 15.83 µM; in test [1] (30 min), 19.79 µM; in test [1] (60 min), 32.99 µM; in test [1] (90 min), 48.39 µM. For the same compound, in test [1] (120 min), the NO-release concentrations stood at 58.84 µM.
Regarding `C=C[C@]1(C)CC[C@@H](C(=C)CN2CCC(OC(=O)CCCC(=O)OCC#CCOc3no[n+]([O-])c3S(=O)(=O)c3ccccc3)C2)C[C@H]1C(=C)CCl` (stereo partly drawn) [Example 12, 4-((4-((5-(((S)-1-(2-((1R,3R,4S)-3-(3-chloroprop-1-en-2-yl)-4-methyl-4-vinylcyclohexyl)allyl)pyrrolidine-3-ly)oxy)-5-oxopentanoyl)oxy)but-2-yn-1-yl)oxy)-3-(phenylsulfonyl)-1,2,5-oxadiazole 2-oxide], the results for the inhibition at 1 µM in the test on NCI-H520, in the test with U87MG and in the test on SW620 were 39.1 ± 0.7%, 47.8 ± 1.1% and 31.7 ± 1.4%, respectively. Also, the NO-release concentrations in test [1] (5 min) was determined as 13.20 µM; in test [1] (10 min) it was 16.04 µM; in test [1] (20 min) it was 21.29 µM; in test [1] (30 min), 26.90 µM; in test [1] (60 min), 46.58 µM; in test [1] (90 min), 74.45 µM. In addition, the NO-release concentrations in test [1] (120 min) turned out to be 103.92 µM. Also, in the test with U87MG, the IC50 was 898 ± 54 nM.
As for `C=C[C@]1(C)CC[C@@H](C(=C)CN2CCC(COC(=O)CCCC(=O)OCCOc3no[n+]([O-])c3S(=O)(=O)c3ccccc3)CC2)C[C@H]1C(=C)CCl` [Example 14, 4-(2-((5-((1-(2-((1R,3R,4S)-3-(3-chloroprop-1-en-2-yl)-4-methyl-4-vinylcyclohexyl)allyl)piperidin-4-yl)methoxyl)-5-oxopentanoyl)oxy)ethyoxyl)-3-(phenylsulfonyl)-1,2,5-oxadiazole 2-oxide], the values for the inhibition at 1 µM in the test with NCI-H520, with U87MG and with SW620 were 50.1 ± 1.1%, 54.8 ± 1.9% and 55.4 ± 1.5%, respectively. Besides, the results for the IC50 in the test on NCI-H520, in the test on U87MG and in the test with SW620 (read-out: IC50 against different tumor cell lines) were 846 ± 27 nM, 477 ± 11 nM and 814 ± 68 nM, respectively. For the same compound, the NO-release concentrations is 12.34 µM in test [1] (5 min); 13.53 µM in test [1] (10 min); 15.94 µM in test [1] (20 min); 18.96 µM in test [1] (30 min); 29.94 µM in test [1] (60 min); 45.42 µM in test [1] (90 min). Further, in test [1] (120 min), the NO-release concentrations is 62.49 µM.
As for `C=C[C@]1(C)CC[C@@H](C(=C)CN(CCOC(=O)CCCC(=O)OCCOc2no[n+]([O-])c2S(=O)(=O)c2ccccc2)C(C)C)C[C@H]1C(=C)CCl` [Example 6], the inhibition at 1 µM is 43.4 ± 1.5% in the test with NCI-H520, 54.3 ± 1.3% in the test on U87MG and 35.6 ± 2.8% with SW620. The NO-release concentrations in test [1] (5 min) was 3.38 µM; in test [1] (10 min), 5.87 µM; in test [1] (20 min), 4.62 µM; in test [1] (30 min), 6.22 µM; in test [1] (60 min), 9.97 µM; in test [1] (90 min), 15.53 µM. In test [1] (120 min), this compound showed an NO-release concentrations of 20.60 µM. Further, the IC50 with U87MG worked out at 366 ± 19 nM.
Take `C=C[C@]1(C)CC[C@@H](C(=C)CN2CCCC(COC(=O)CCC(=O)OCC#CCOc3no[n+]([O-])c3S(=O)(=O)c3ccccc3)C2)C[C@H]1C(=C)CCl` (stereo partly drawn) [Example 19, 4-((4-((4-((1-(2-((1R,3R,4S)-3-(3-chloroprop-1-en-2-yl)-4-methyl-4-vinylcyclohexyl)allyl)piperidin-3-yl)methoxyl)-4-oxobutanoyl)oxy)but-2-yn-1-yl)oxy)-3-(phenylsulfonyl)-1,2,5-oxadiazole 2-oxide]: the inhibition at 1 µM with NCI-H520 was determined as 46.1 ± 2.7%; in the test on U87MG, 41.9 ± 1.1%; in the test on SW620 it was 40.6 ± 2.8%. Moreover, the NO-release concentrations in test [1] (5 min) came to 13.76 µM; in test [1] (10 min), 15.87 µM; in test [1] (20 min) it was 19.21 µM; in test [1] (30 min), 22.88 µM; in test [1] (60 min), 34.60 µM; in test [1] (90 min), 48.73 µM. Also, the NO-release concentrations in test [1] (120 min) is 56.52 µM. Besides, the IC50 in the test with U87MG amounted to 985 ± 12 nM.

Values taken from patent publication US12624012B2, “14-chloro-β-elemene nitric oxide donor derivative and preparation method and use thereof” (HANGZHOU NORMAL UNIVERSITY, priority 2021, dated 2026).
